Measurements from ChEMBL document CHEMBL1125517, “Synthesis and antifolate evaluation of 10-ethyl-5-methyl-5,10- dideazaaminopterin and an alternative synthesis of 10-ethyl-10- deazaaminopterin (edatrexate)” (J Med Chem, 1992).

Key:
L1210 [1] = experiment: In vitro inhibition of L1210 cell growth; type: functional, cell-based; conditions: Mus musculus
L1210 [2] = experiment: Compound was evaluated for influx of L1210 cells; type: functional, cell-based; conditions: Mus musculus

IC50 (L1210 [1]) [nM] | Structure (SMILES) | Km (L1210 [2]) [µM]
3.4 | CN(Cc1cnc2nc(N)nc(N)c2n1)c1ccc(C(=O)N[C@@H](CCC(=O)O)C(=O)O)cc1 [METHOTREXATE] | 3.51
65 | CCC(Cc1cnc2nc(N)nc(N)c2n1)c1ccc(C(=O)NC(CCC(=O)O)C(=O)O)cc1 (centres undefined) | 1.08
